Assay results taken from patent US6319915A, “Benzazepine derivatives as inhibitors of hyperproliferation diseases” (Pfizer Inc., priority 2000, dated 2001).

Molecular target: T1, VEGF/GAG (glycosaminoglycan) (Homo sapiens, UniProt P15692)
T1 construct: purchased Repligen, Inc
T1 sequence (P15692 1-191 isoform P15692-4): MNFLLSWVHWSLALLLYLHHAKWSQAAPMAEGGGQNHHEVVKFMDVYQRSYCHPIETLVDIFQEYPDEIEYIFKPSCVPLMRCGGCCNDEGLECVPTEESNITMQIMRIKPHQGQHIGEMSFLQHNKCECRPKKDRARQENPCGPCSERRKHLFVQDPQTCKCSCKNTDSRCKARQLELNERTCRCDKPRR
Assay: in vitro inhibition of VEGF/GAG (glycosaminoglycan) binding ([125I]heparin-16-mer / VEGF165 filter binding)
Conditions: purified VEGF165 20 nM, 60 minutes at room temperature, 0.16% DMSO
Method: The in vitro activity of the compounds of formula I in inhibiting VEGF/GAG (glycosaminoglycan) binding may be measured using the assay described in U.S. Pat. No. 5,795,860, the subject matter of which is incorporated herein by reference.
Using mixed cellulose ester 96-well filter plates, 150 μL of Dulbeccos PBS (phosphate buffered saline) containing 10% ovalbumin is added. Compound (5.0 μL) is added at a final concentration of […]. Compounds are dissolved in 8% DMSO (final DMSO concentration is 0.16%) and tested at concentrations of 32, 10, 3.2, 1.0, 0.32 and 0.10 μM. A mixture of [^125 I]heparin-16-mer (4500 cpm per well), purified VEGF165 (20 nM final concentration/well, prepared by Repligen, Inc.) and Dulbeccos PBS with 10% ovalbumin is added to the 96-well plate in a volume of 100 μL. Nonspecific binding is defined using 10 μM heparin-sodium from porcine intestinal mucosa. The assay plate is incubated for 60 minutes at room temperature, filtered using a Millipore filtration apparatus, the plastic bottom plate is removed and the filter plate is allowed to completely dry. The plate bottom is sealed with plastic plate seal and 25 μL of scintillation cocktail is added to each well. The top plate is sealed and is counted for radioactivity on a Microbeta Scintillation Counter. The assay is run in a final volume of 250 μL.

| SMILES | IC50 |
| --- | --- |
| Cc1ccccc1C1CC(NC(=O)Nc2cccc(C(=O)Nc3nnc(C(F)(F)F)s3)c2)C(=O)N(CC(=O)NC(C)(C)C)C(c2ccccc2)C1 (centres unmarked) [3-{3-[1-(tert-Butylcarbamoyl-methyl)-2-oxo-7-phenyl-5-o-tolyl-azepan-3-yl]-ureido}-N-(5-trifluoromethyl-[1,3,4]thiadiazol-2-yl)-benzamide] | 8600 nM |
| Cc1ccc2c(c1)N(CC(=O)NC(C)(C)C)C(=O)C(NC(=O)Nc1cccc(C(=O)O)c1)CC2c1ccccc1 (centres unmarked) [3-{3-[1-(tert-Butylcarbamoyl-methyl)-8-methyl-2-oxo-5-phenyl-2,3,4,5-tetrahydro-1H-benzo[b]azepin-3-yl]-ureido}-benzoic acid] | 9800 nM |
| Cc1ccccc1C1CC(NC(=O)Nc2cccc(C(=O)O)c2)C(=O)N(CC(=O)NC(C)(C)C)C(c2ccccc2)C1 (centres unmarked) [3-{3-[1-(tert-Butylcarbamoyl-methyl)-2-oxo-7-phenyl-5-o-tolyl-azepan-3-yl]-ureido}-benzoic acid] | 20000 nM |
| CC1(C)CN(C(=O)CN2C(=O)C(NC(=O)Nc3cccc(-c4nnn[nH]4)c3)CSc3ccccc32)CC(C)(C)C1 (centres unmarked) [1-{4-Oxo-5-[2-oxo-2-(3,3,5,5-tetramethyl-piperidin-1-yl)-ethyl]-2,3,4,5-tetrahydro-benzo[b][1,4]thiazepin-3-yl}-3-[3-(1H-tetrazol-5-yl)-phenyl]-urea] | 6700 nM |
| COc1ccccc1C1CC(NC(=O)Nc2cccc(C(=O)NS(C)(=O)=O)c2)C(=O)N(CC(=O)NC2(C)CCCCC2)C(c2ccccc2)C1 (centres unmarked) [2-[3-[3-(3-Methanesulfonylaminocarbonyl-phenyl)-ureido]-5-(2-methoxy-phenyl)-2-oxo-7-phenyl-azepan-1-yl]-N-(1-methyl-cyclohexyl)-acetamide] | 3000 nM |
| Cc1ccc2c(c1)N(CC(=O)NC(C)(C)C)C(=O)C(NC(=O)Nc1cccc(-c3nnn[nH]3)c1)CC2C1CCCCC1 (centres unmarked) [N-tert-Butyl-2-(5-cyclohexyl-8-methyl-2-oxo-3-{3-[3-(1H-tetrazol-5-yl)-phenyl]-ureido}-2,3,4,5-tetrahydro-benzo[b]azepin-1-yl)-acetamide] | 4300 nM |
| Cc1ccccc1C1CC(NC(=O)Nc2cccc(-c3nnn[nH]3)c2)C(=O)N(CC(=O)NC(C)(C)C)C(c2ccccc2)C1 (centres unmarked) [N-tert-Butyl-2-(2-oxo-7-phenyl-3-{3-[3-(1H-tetrazol-5-yl)-phenyl]-ureido}-5-o-tolyl-azepan-1-yl)-acetamide] | 3700 nM |
| COc1ccccc1C1CC(NC(=O)Nc2cccc(C(=O)O)c2)C(=O)N(CC(=O)NC(C)(C)C)C(c2ccccc2)C1 (centres unmarked) [3-{3-[1-(tert-Butylcarbamoyl-methyl)-5-(2-methoxy-phenyl)-2-oxo-7-phenyl-azepan-3-yl]-ureido}-benzoic acid] | 4300 nM |
| COc1ccccc1C1CC(NC(=O)Nc2cccc(C(=O)NS(C)(=O)=O)c2)C(=O)N(CC(=O)NC(C)(C)C)C(c2ccccc2)C1 (centres unmarked) [N-tert-Butyl-2-[3-[3-(3-methanesulfonylaminocarbonyl-phenyl)-ureido]-5-(2-methoxy-phenyl)-2-oxo-7-phenyl-azepan-1-yl]-acetamide] | 5800 nM |
| CC1(C)CN(C(=O)CN2C(=O)C(NC(=O)Nc3cccc(-c4nnn[nH]4)c3)COc3cc(F)ccc32)CC(C)(C)C1 (centres unmarked) [1-{3-Fluoro-8-oxo-9-[2-oxo-2-(3,3,5,5-tetramethyl-piperidin-1-yl)-ethyl]-6,7,8,9-tetrahydro-5-oxa-9-aza-benzocyclohepten-7-yl}-3-[3-(1H-tetrazol-5-yl)-phenyl]-urea] | 3700 nM |
| Cc1ccc2c(c1)N(CC(=O)NC(C)(C)C)C(=O)C(NC(=O)Nc1cccc(C(=O)NS(C)(=O)=O)c1)CC2c1ccccc1 (centres unmarked) [N-tert-Butyl-2-{3-[3-(3-methanesulfonylaminocarbonyl-phenyl)-ureido]-8-methyl-2-oxo-5-phenyl-2,3,4,5-tetrahydro-benzo[b]azepin-1-yl}-acetamide] | 11000 nM |

Compounds with a lower IC50, results first:

| IC50 | SMILES |
| --- | --- |
| 2400 nM | Cc1cccc(NC(=O)NC2CC(c3ccccc3C)CC(c3ccccc3)N(CC(=O)O)C2=O)c1 (centres unmarked) [[2-Oxo-7-phenyl-5-o-tolyl-3-(3-m-tolyl-ureido)-azepan-1-yl]-acetic acid] |
| 2000 nM | Cc1ccccc1C1CC(NC(=O)Nc2cccc(-c3nnn[nH]3)c2)C(=O)N(CC(=O)NC2(C)CCCCC2)C(c2ccccc2)C1 (centres unmarked) [N-(1-Methyl-cyclohexyl)-2-(2-oxo-7-phenyl-3-{3-[3-(1H-tetrazol-5-yl)-phenyl]-ureido}-5-o-tolyl-azepan-1-yl)-acetamide] |
| 1900 nM | COc1ccccc1C1CC(NC(=O)Nc2cccc(-c3nnn[nH]3)c2)C(=O)N(CC(=O)NC2(C)CCCCC2)C(c2ccccc2)C1 (centres unmarked) [2-(5-(2-Methoxy-phenyl)-2-oxo-7-phenyl-3-{3-[3-(1H-tetrazol-5-yl)-phenyl]-ureido}-azepan-1-yl)-N-(1-methyl-cyclohexyl)-acetamide] |
| 1400 nM | Cc1ccccc1C1CC(NC(=O)Nc2cccc(C(=O)NS(=O)(=O)c3ccccc3)c2)C(=O)N(CC(=O)NC(C)(C)C)C(c2ccccc2)C1 (centres unmarked) [2-{3-[3-(3-Benzenesulfonylaminocarbonyl-phenyl)-ureido]-2-oxo-7-phenyl-5-o-tolyl-azepan-1-yl}-N-tert-butyl-acetamide] |
| 700 nM | COc1ccccc1C1CC(NC(=O)Nc2cccc(-c3nnn[nH]3)c2)C(=O)N(CC(=O)NC(C)(C)C)C(c2ccccc2)C1 (centres unmarked) [N-tert-Butyl-2-(5-(2-methoxy-phenyl)-2-oxo-7-phenyl-3-{3-[3-(1H-tetrazol-5-yl)-phenyl]-ureido}-azepan-1-yl)-acetamide] |
| 1700 nM | Cc1ccccc1C1CC(NC(=O)Nc2cccc(C(=O)NS(=O)(=O)C(F)(F)F)c2)C(=O)N(CC(=O)NC2(C)CCCCC2)C(c2ccccc2)C1 (centres unmarked) [N-(1-Methyl-cyclohexyl)-2-{2-oxo-7-phenyl-5-o-tolyl-3-[3-(3-trifluoromethanesulfonylaminocarbonyl-phenyl)-ureido]-azepan-1-yl}-acetamide] |
| 2300 nM | Cc1ccccc1C1CC(NC(=O)Nc2cccc(C(=O)Nc3nnn[nH]3)c2)C(=O)N(CC(=O)NC2(C)CCCCC2)C(c2ccccc2)C1 (centres unmarked) [3-(3-{1-[(1-Methyl-cyclohexylcarbamoyl)-methyl]-2-oxo-7-phenyl-5-o-tolyl-azepan-3-yl}-ureido)-N-(1H-tetrazol-5-yl)-benzamide] |
| 900 nM | COc1ccccc1C1CC(NC(=O)Nc2cccc(C(=O)Nc3nnn[nH]3)c2)C(=O)N(CC(=O)NC2(C)CCCCC2)C(c2ccccc2)C1 (centres unmarked) [3-(3-{5-(2-Methoxy-phenyl)-1-[(1-methyl-cyclohexylcarbamoyl)-methyl]-2-oxo-7-phenyl-azepan-3-yl}-ureido)-N-(1H-tetrazol-5-yl)-benzamide] |
| 2400 nM | Cc1ccccc1C1CC(NC(=O)Nc2cccc(C(=O)NS(=O)(=O)Cc3ccccc3)c2)C(=O)N(CC(=O)NC(C)(C)C)C(c2ccccc2)C1 (centres unmarked) [N-tert-Butyl-2-{2-oxo-7-phenyl-3-[3-(3-phenylmethanesulfonylaminocarbonyl-phenyl)-ureido]-5-o-tolyl-azepan-1-yl}-acetamide] |
| 1600 nM | Cc1ccccc1C1CC(NC(=O)Nc2ccc3[nH]nnc3c2)C(=O)N(CC(=O)NC(C)(C)C)C(c2ccccc2)C1 (centres unmarked) [2-{3-[3-(1H-Benzotriazol-5-yl)-ureido]-2-oxo-7-phenyl-5-o-tolyl-azepan-1-yl}-N-tert-butyl-acetamide] |
| 1700 nM | COc1ccccc1C1CC(NC(=O)Nc2cccc(C(=O)Nc3nnn[nH]3)c2)C(=O)N(CC(=O)NC(C)(C)C)C(c2ccccc2)C1 (centres unmarked) [3-{3-[1-(tert-Butylcarbamoyl-methyl)-5-(2-methoxy-phenyl)-2-oxo-7-phenyl-azepan-3-yl]-ureido}-N-(1H-tetrazol-5-yl)-benzamide] |
| 1700 nM | CC1(C)CCCC(C)(C)N1C(=O)CN1C(=O)C(NC(=O)Nc2cccc(-c3nnn[nH]3)c2)COc2cc(F)ccc21 (centres unmarked) [1-{3-Fluoro-8-oxo-9-[2-oxo-2-(2,2,6,6-tetramethyl-piperidin-1-yl)-ethyl]-6,7,8,9-tetrahydro-5-oxa-9-aza-benzocyclohepten-7-yl}-3-[3-(1H-tetrazol-5-yl)-phenyl]-urea] |
